The values below come from ChEMBL document CHEMBL1143357, “Synthesis and biological activities of high affinity taxane-based fluorescent probes” (Bioorg Med Chem Lett, 2009).

Molecules are shown by their SMILES. Bounds are passed on as bounds.

For assay [1], the system named is A2780. To be noted: Homo sapiens, A2780, 48 h.
For assay [2], the system named is A2780. Kind of assay: Resistant factor, ratio of IC50 for p-glycoprotein expressing drug-resistant human A2780AD cells to IC50 for human A2780 cells. It counts as functional.
Assay [3] is described as follows: Induction of assembly of GTP-tubulin into microtubules assessed as critical concentration.
The test system of assay [4] is A2780. Description: cells. The conditions noted are these: Homo sapiens, A2780, 48 h.
Description: Cytotoxicity against human A2780 cells after 48 hrs by MTT assay
The nature of assay [5]: Displacement of non-fluorescent ligand from paclitaxel binding site of microtubule.

The IC50 is the concentration that gives 50% inhibition. Lower therefore signals greater potency in that assay. As to `CC(=O)O[C@H]1C(=O)[C@]2(C)[C@@H](OC(=O)[C@H](C)NC(=O)c3ccc(-c4c5ccc(=O)cc-5oc5cc(O)ccc45)c(C(=O)O)c3)C[C@H]3OC[C@@]3(OC(C)=O)[C@H]2[C@H](OC(=O)c2ccccc2)[C@]2(O)C[C@H](OC(=O)[C@H](O)[C@@H](NC(=O)c3ccccc3)c3ccccc3)C(C)=C1C2(C)C` [FLUTAX 1], the IC50 is above 20000 nM in assay [1] and 256 nM in assay [4]. In addition, in assay [2], the “Ratio IC50” value is above 78. The Activity in assay [3] turned out to be 3.84 µM.
For `C/C=C(\C)C(=O)N[C@@H](c1ccccc1)[C@@H](O)C(=O)O[C@H]1C[C@@]2(O)[C@@H](OC(=O)c3cccc(N=[N+]=[N-])c3)[C@@H]3[C@]4(OC(C)=O)CO[C@@H]4C[C@H](OC(=O)[C@H](C)NC(=O)c4ccc(-c5c6ccc(=O)cc-6oc6cc(O)ccc56)c(C(=O)O)c4)[C@@]3(C)C(=O)[C@H](OC(C)=O)C(=C1C)C2(C)C`, in that order: above 20000 nM, 220 nM, above 91 and 2.45 µM.
Turning to `COc1cccc(C(=O)O[C@H]2[C@@H]3[C@]4(OC(C)=O)CO[C@@H]4C[C@H](OC(=O)[C@H](C)NC(=O)c4ccc(-c5c6ccc(=O)cc-6oc6cc(O)ccc56)c(C(=O)O)c4)[C@@]3(C)C(=O)[C@H](OC(C)=O)C3=C(C)[C@@H](OC(=O)[C@H](O)[C@@H](NC(=O)c4ccccc4)c4ccccc4)C[C@]2(O)C3(C)C)c1`, the IC50 in assay [1] worked out at 716 nM; in assay [4], 19.5 nM. In addition, the “Ratio IC50” value in assay [2] worked out at 36.7. The Activity in assay [3] is 2.26 µM.
For `CC(=O)O[C@@]12CO[C@@H]1C[C@H](O)[C@@]1(C)C(=O)[C@H](O)C3=C(C)[C@@H](OC(=O)[C@H](O)[C@@H](NC(=O)OC(C)(C)C)c4ccccc4)C[C@@](O)([C@@H](OC(=O)c4ccccc4)[C@H]21)C3(C)C.O.O.O` [DOCETAXEL] the same measures were 290 nM, 0.6 nM, 483 and 2.5 µM.
On to `COc1cccc(C(=O)O[C@H]2[C@@H]3[C@]4(OC(C)=O)CO[C@@H]4C[C@H](OC(=O)[C@H](C)NC(=O)c4ccc(-c5c6cc(F)c(=O)cc-6oc6cc(O)c(F)cc56)c(C(=O)O)c4)[C@@]3(C)C(=O)[C@H](OC(C)=O)C3=C(C)[C@@H](OC(=O)[C@H](O)[C@@H](NC(=O)c4ccccc4)c4ccccc4)C[C@]2(O)C3(C)C)c1`, for which the values for the IC50 in assay [1] and in assay [4] were 7200 nM and 272 nM, respectively. Also, in assay [2], the “Ratio IC50” value is given as 26.4. In addition, the Activity in assay [3] was found to be 2.17 µM.
As for `CC(=O)O[C@H]1C(=O)[C@@]2(C)[C@H]([C@H](OC(=O)c3ccccc3)[C@]3(O)C[C@H](OC(=O)[C@H](O)[C@@H](NC(=O)c4ccccc4)c4ccccc4)C(C)=C1C3(C)C)[C@]1(OC(C)=O)CO[C@@H]1C[C@@H]2O` [PACLITAXEL], the Activity in assay [3] came out at 4.23 µM. For the same compound, half-maximal inhibition in assay [4] (IC50) was put at 1.3 nM.
Regarding `CC(=O)O[C@H]1C(=O)[C@]2(C)[C@@H](OC(=O)[C@H](C)NC(=O)c3ccc(-c4c5cc(F)c(=O)cc-5oc5cc(O)c(F)cc45)c(C(=O)O)c3)C[C@H]3OC[C@@]3(OC(C)=O)[C@H]2[C@H](OC(=O)c2ccccc2)[C@]2(O)C[C@H](OC(=O)[C@H](O)[C@@H](NC(=O)c3ccccc3)c3ccccc3)C(C)=C1C2(C)C` [FLUTAX 2], the IC50 in assay [1] is above 20000 nM; in assay [4], 800 nM. Besides, the “Ratio IC50” value in assay [2] was above 25. Also, in assay [3], the Activity amounted to 3.22 µM.
In assay [5], `C/C(=C\c1csc(C)n1)[C@@H]1C[C@@H]2O[C@]2(C)CCC[C@H](C)[C@H](O)[C@@H](C)C(=O)C(C)(C)[C@@H](O)CC(=O)O1` registered a Ka of 7.5 ×10⁸ /M.
